Counter-ions that a name gives are not always drawn.

Broadly, the melting point is the temperature, or range, at which the solid turns liquid.

With `COC(=O)c1cc(N2CCN(CCc3c[nH]c4cc(Cl)ccc34)CC2)c2cc[nH]c2c1` (as salt: oxalate) [Compound 4g, 1-(2-(6-Chloro-1H-indol-3-yl)ethyl)-4-(6-methoxycarbonyl-1-H-indol-4-yl)piperazine], the melting point was in the range of 228 to 230 °C.
For `N#Cc1c[nH]c2cccc(N3CCN(CCc4c[nH]c5cc(Cl)ccc45)CC3)c12` (as salt: fumarate) [Compound 4o, 1-(2-(6-Chloro-1H-indol-3-yl)ethyl)-4-(3-cyano-1H-indol-4-yl)piperazine] the value was 234 to 236 °C.
With `Fc1ccc2occ(CCCCN3CCN(c4cccc5[nH]ccc45)CC3)c2c1` (as salt: hydrochloride) [Compound 1d, 1-(4-(5-Fluoro-3-benzofuranyl)-1-butyl)-4-(1H-indol-4-yl)piperazine] the figure was 241 to 244 °C; with `N#Cc1c[nH]c2cccc(N3CCN(CCc4coc5ccccc45)CC3)c12` (as salt: oxalate) [Compound 4p, 1-(2-(3-Benzofuranyl)ethyl)-4-(3-cyano-1H-indol-4-yl)piperazine], 221 to 223 °C; with `c1cc(N2CCN(CCc3n[nH]c4ccccc34)CC2)c2cc[nH]c2c1` (as salt: oxalate) [Compound 1j, 1-(2-(3-Indazolyl)ethyl)-4-(1H-indol-4-yl)piperazine], 149 to 151 °C.
In turn, `Brc1cccc2c(CCN3CCN(c4cccc5[nH]ccc45)CC3)c[nH]c12` (as salt: oxalate) [Compound 2i, 1-(2-(7-Bromo-1H-indol-3-yl)ethyl)-4-(1H-indol-4-yl)piperazine] yielded a melting point of 149 to 151 °C.
With `C#CCn1ccc2c(N3CCN(CCc4c[nH]c5ccccc45)CC3)cccc21` (as salt: fumarate) the figure was 193 to 195 °C; with `Brc1ccc2[nH]cc(CCN3CCN(c4ccc5[nH]ccc5c4)CC3)c2c1` (as salt: fumarate) [Compound 2t, 1-(2-(5-Bromo-1H-indol-3-yl)ethyl)-4-(1H-indol-5-yl)piperazine], 231 to 233 °C.
With `c1ccc2c(CCCCN3CCN(c4cccc5[nH]ccc45)CC3)c[nH]c2c1` (as salt: oxalate) [Compound 1g, 1-(4-(1H-indol-3-yl)-1-butyl)-4-(1H-indol-4yl)piperazine] the figure was 189 to 193 °C; with `Clc1cccc2[nH]cc(CCN3CCN(c4cccc5[nH]ccc45)CC3)c12` (as salt: oxalate) [Compound 2b, 1-(2-(4-Chloro-1H-indol-3-yl)ethyl)-4-(1H-indol-4-yl)piperazine], 245 to 247 °C.
Take `Clc1cccc2c(CCN3CCN(c4cccc5[nH]ccc45)CC3)coc12` (as salt: oxalate) [Compound 4v, 1-(2-(7-Chloro-3-benzofuranyl)ethyl)-4-(1H-indol-4-yl)piperazine]: the melting point was 216 to 218 °C.
Compound `N#Cc1c[nH]c2cccc(N3CCN(CCc4coc5ccc(F)cc45)CC3)c12` (as salt: fumarate) [Compound 4n, 1-(3-Cyano-1H-indol-4-yl)-4-(2-(5-fluoro-3-benzofuranyl)ethyl)piperazine] yielded a melting point of 235 to 237 °C.
For `Clc1ccc2c(CCN3CCN(c4cccc5[nH]ccc45)CC3)n[nH]c2c1` (as salt: oxalate) [Compound 1k, 1-(2-(6-Chloro-3-indazolyl)ethyl)-4-(1H-indol-4-yl)piperazine] the value was 255 to 258 °C; for `Clc1ccc2[nH]cc(CCN3CCN(c4ccc5[nH]ccc5c4)CC3)c2c1` (as salt: fumarate) [Compound 2u, 1-(2-(5-Chloro-1H-indol-3-yl)ethyl)-4-(1H-indol-5-yl)piperazine], 232 to 234 °C; for `c1ccc(Cn2ccc3c(N4CCN(CCc5c[nH]c6ccccc56)CC4)cccc32)cc1` (as salt: fumarate) [Compound 2s, 1-(1-Benzyl-1H-indol-4-yl)-4-(2-(1H-indol-3-yl)ethyl)piperazine], 188 to 190 °C.
For `N#Cc1c[nH]c2cccc(N3CCN(CCc4c[nH]c5ccccc45)CC3)c12` (as salt: fumarate) [Compound 4m, 1-(3-Cyano-1H-indol-4-yl)-4-(2-(1H-indol-3-yl)ethyl)piperazine] the value was above 250 °C.
For `COC(=O)c1cc(N2CCN(CCc3coc4ccc(F)cc34)CC2)c2cc[nH]c2c1` (as salt: oxalate) [Compound 4h, 1-(2-(5-Fluoro-3-benzofuranyl)ethyl)-4-(6-methoxycarbonyl-1H-indol-4-yl)piperazine], the melting point is 227 to 228 °C.
For `Clc1ccc2occ(CCN3CCN(c4cccc5[nH]ccc45)CC3)c2c1` (as salt: oxalate) [Compound 4t, 1-(2-(5-Chloro-3-benzofuranyl)ethyl)-4-(1H-indol-4-yl)piperazine] the value was 200 to 202 °C; for `c1ccc2c(CCCN3CCN(c4cccc5[nH]ccc45)CC3)c[nH]c2c1` (as salt: oxalate) [Compound 1f, 1-(3-(1H-indol-3-yl)-1-propyl)-4-(1H-indol-4-yl)piperazine], 198 to 204 °C.
Compound `COC(=O)c1cc(N2CCN(CCc3c[nH]c4ccccc34)CC2)c2cc[nH]c2c1` (as salt: oxalate) [Compound 4f, 1-(2-(1H-indol-3-yl)ethyl)-4-(6-methoxycarbonyl-1H-indol-4-yl)piperazine] registered a melting point of 213 to 216 °C.
With `Fc1ccc2occ(CCCN3CC=C(c4cccc5[nH]ccc45)CC3)c2c1` (as salt: fumarate) [Compound 4s, 1-(3-(5-Fluoro-3-benzofuranyl)-1-propyl)-4-(1H-indol-4-yl)-1,2,3,6-tetrahydropyridine] the figure was 183 to 185 °C; with `N#Cc1cccc2c(CCN3CCN(c4cccc5[nH]ccc45)CC3)c[nH]c12` (as salt: oxalate) [Compound 1l, 1-(2-(7-Cyano-1H-indol-3-yl)ethyl)-4-(1H-indol-4-yl)piperazine], 241 to 243 °C; with `Cc1oc2c(F)c(F)c(F)c(F)c2c1CCN1CCN(c2cccc3[nH]ccc23)CC1` (as salt: hydrochloride) [Compound 1i, 1-(2-(2-Methyl-4,5,6,7-tetrafluoro-3-benzofuranyl)ethyl)-4-(1H-indol-4-yl)piperaziine], 181 to 187 °C.
With `C#CCn1ccc2c(N3CCN(CCc4c[nH]c5ccc(Br)cc45)CC3)cccc21` the figure was 154 to 156 °C.
In turn, `Cc1ccc2occ(CCN3CCN(c4cccc5[nH]ccc45)CC3)c2c1` (as salt: hydrochloride) [Compound 4q, 1-(1H-Indol-4-yl)-4-(2-(5-methyl-3-benzofuranyl)ethyl)piperazine] came in with a melting point of 258 to 260 °C.
With `Fc1ccc2[nH]cc(CCN3CCN(c4cccc5[nH]ccc45)CC3)c2c1` (as salt: fumarate) [Compound 2c, 1-(2-(5-Fluoro-1H-indol-3-yl)ethyl)-4-(1H-indol-4-yl)piperazine] the figure was 212 to 215 °C; with `C#CCn1ccc2c(N3CCN(CCc4c[nH]c5ccc(F)cc45)CC3)cccc21`, 153 to 155 °C; with `c1ccc2c(CCN3CCN(c4cccc5[nH]ccc45)CC3)c[nH]c2c1` (as salt: oxalate) [Compound 1e, 1-(2-(1H-indol-3-yl)ethyl)-4-(1H-indol-4-yl)piperazine], 167 to 169 °C.
With `C#CCn1ccc2c(N3CCN(CCc4c[nH]c5cc(Cl)ccc45)CC3)cccc21` the figure was 197 to 199 °C; with `Fc1ccc2occ(CCCN3CCN(c4cccc5[nH]ccc45)CC3)c2c1` (as salt: hydrochloride) [Compound 1h, 1-(3-(5-Fluoro-3-benzofuranyl)-1-propyl)-4-(1H-indol-4-yl)piperazine], 230 to 234 °C; with `Fc1ccc2[nH]cc(CCN3CCN(c4cccc5c4ccn5Cc4ccccc4)CC3)c2c1` (as salt: fumarate) [Compound 2m, 1-(1-Benzyl-1H-indol-4-yl)-4-(2-(5-fluoro-1H-indol-3-yl)ethyl)piperazine], 178 to 180 °C.
The compound `Clc1ccc2c(CCN3CC=C(c4cccc5[nH]ccc45)CC3)c[nH]c2c1` (as salt: fumarate) [Compound 2g, 1-(2-(6-Chloro-1H-indol-3-yl)ethyl)-4-(1H-indol-4-yl)-1,2,3,6-tetrahydropyridine] gave a melting point of 225 to 226 °C.
In turn, `Fc1ccc2[nH]cc(CCN3CC=C(c4cccc5[nH]ccc45)CC3)c2c1` (as salt: fumarate) [Compound 2h, 1-(2-(5-Fluoro-1H-indol-3-yl)ethyl)-4-(1H-indol-4-yl)-1,2,3,6-tetrahydropyridine] displayed a melting point of 204 to 206 °C.
For `Cc1cccc2occ(CCN3CCN(c4cccc5[nH]ccc45)CC3)c12` (as salt: oxalate) [Compound 4r, 1-(1H-Indol-4-yl)-4-(2-(4-methyl-3-benzofuranyl)ethyl)piperazine] the value was 204 to 206 °C; for `Fc1ccc2occ(CCN3CCN(c4cccc5[nH]ccc45)CC3)c2c1` (as salt: oxalate) [Compound 1c, 1-(2-(5-Fluoro-3-benzofuranyl)ethyl)-4-(1H-indol-4-yl)piperazine], 196 to 197 °C.
For `Cc1ccc2c(CCN3CCN(c4cccc5[nH]ccc45)CC3)coc2c1` (as salt: oxalate) [Compound 4u, 1-(1H-Indol-4-yl)-4-(2-(6-methyl-3-benzofuranyl)ethyl)piperazine] the value was 190 to 192 °C.
The compound `N#Cc1c[nH]c2cccc(N3CCN(CCc4c[nH]c5cccc(Cl)c45)CC3)c12` (as salt: fumarate) [Compound 4x, 1-(2-(4-Chloro-1H-indol-3-yl)ethyl)-4-(3-cyano-1H-indol-4-yl)piperazine] displayed a melting point above 250 °C.
For `c1cc(N2CCN(Cc3coc4ccccc34)CC2)c2cc[nH]c2c1` (as salt: oxalate) [Compound 1b, 1-(3-Benzofuranylmethyl)-4-(1H-indol-4-yl)piperazine], the melting point lay within 226 to 228 °C.
With `C=CCn1ccc2c(N3CCN(CCc4c[nH]c5ccc(F)cc45)CC3)cccc21` (as salt: fumarate) the figure was 210 to 212 °C.

The values above are taken from patent publication US6391882B1, “4,5,6 and 7-indole and indoline derivatitives, their preparation and use” (H. Lundbeck A/S, priority 1998, dated 2002).
